We go through six compounds from ChEMBL document CHEMBL1134697, “Synthesis and antiproliferative activity of epoxy and bromo compounds derived from estrone” (Bioorg Med Chem Lett, 2001).

A short description of assay [1]: Antiproliferative activity was determined after 48 hr exposure to human melanoma Fem-X cell. Type of assay: functional, cell-based.
In another assay the test system is HeLa. The assay is described as follows: Antiproliferative activity was determined after 48 hr exposure to human cervix carcinoma HeLa cells. The format is functional, cell-based.
Assay [2] concerns K562. The assay is described as follows: Antiproliferative activity was determined after 48 hr exposure to human myelogenous leukemia K562 cells. Type of assay: functional, cell-based. The note with it: K562, 48 h.
The nature of assay [3]: Antiproliferative activity was determined after 72 hr exposure to human melanoma Fem-x cells. Type of assay: functional, cell-based.
Assay [4] can be described thus: Antiproliferative activity was determined after 72 hr exposure to normal human peripheral blood mononuclear cells (PBMC) in the absence of 5 ug/mL Phytohemagglutinine. Type of assay: functional.
Assay [5] can be described thus: Antiproliferative activity was determined after 72 hr exposure to normal human peripheral blood mononuclear cells (PBMC) in the presence of 5 ug/mL Phytohemagglutinine. The format is functional.
The test system of assay [6] is K562. The assay is described as follows: Antiproliferative activity was determined after 72 hr exposure to human myelogenous leukemia K562 cells. Type of assay: functional, cell-based. The note with it: K562, 72 h.
A further assay deals with P388. The assay is described as follows: Concentration required for antiproliferative activity against P388 cell survival by 50%. Type of assay: functional, cell-based. Conditions: Mus musculus.

Regarding `C[C@]12CCC3C(CC[C@]45O[C@H]4[C@@H](O)C=C[C@]35O)C1CCC2O` (some centres undefined), the IC50 (in assay [1]; with HeLa; with K562 [2]) was above 270 µM each time.
As to `C[C@]12CCC3C(CCC4=CC(=O)C=C[C@@]43O)C1CCC2=O` (some centres undefined), the IC50 (in assay [1]; in the assay with HeLa; in the assay on K562 [2]) was above 100 µM in each case.
For `C[C@]12CCC3[C@@H](CC[C@]45O[C@H]4C(=O)C(Br)=C[C@]35O)[C@@H]1CCC2=O` (some centres undefined), the IC50 in assay [3] worked out at 1 µM; in assay [1] it was 6 µM; in assay [4], 2.9 µM; in assay [5], 1.3 µM; with K562 [6] it was 0.7 µM; with HeLa it was 2.5 µM. The compound further had an IC50 with K562 [2] of 1.2 µM.
Regarding `C[C@]12CC[C@H]3[C@@H](CC[C@]45O[C@H]4C(=O)C=C[C@]35O)[C@@H]1CCC2=O`, the IC50 was 7.1 µM in assay [1], 5.73 µM in the assay with HeLa and 6.22 µM in the assay on K562 [2].
On to `C[C@]12CCC3[C@@H](CCC4=C(Br)C(=O)C=C[C@@]43O)[C@@H]1CCC2=O` (some centres undefined), for which the IC50 is 4.6 µM in assay [3]; 14.5 µM in assay [1]; 12.3 µM in assay [4]; 5.2 µM in assay [5]; 5.9 µM in the assay with K562 [6]; 6.17 µM in the assay on HeLa. In addition, in the assay with K562 [2], the midpoint of inhibition, the IC50, lay at 13.7 µM.
`O=C1C(Br)=C[C@H](O)[C@H]2O[C@@H]12` registered an IC50 in the assay with P388 of 0.049 µM.

What is called IC50 is the concentration at which inhibition is half-maximal.
